ChEMBL document CHEMBL3046826, “Triosephosphate isomerases in Italian ryegrass ( Lolium multiflorum ): characterization and susceptibility to herbicides” (J Agric Food Chem, 2009)

Experiments:
[1] = target: Triosephosphate isomerase, chloroplastic (Secale cereale) (UniProt P46225); assay: Inhibition of desalted triosephosphate isomerase in Lolium multiflorum (Italian rye grass) shoot assessed as transformation of GAP to DHAP applied at concentration of 20.0 mg/flat measured per mg protein after 48 hr by coupled enzyme assay (reference value: 9.80 +/-0.43 nmol/sec)
Chain of Triosephosphate isomerase, chloroplastic (Secale cereale) (P46225 whole entry): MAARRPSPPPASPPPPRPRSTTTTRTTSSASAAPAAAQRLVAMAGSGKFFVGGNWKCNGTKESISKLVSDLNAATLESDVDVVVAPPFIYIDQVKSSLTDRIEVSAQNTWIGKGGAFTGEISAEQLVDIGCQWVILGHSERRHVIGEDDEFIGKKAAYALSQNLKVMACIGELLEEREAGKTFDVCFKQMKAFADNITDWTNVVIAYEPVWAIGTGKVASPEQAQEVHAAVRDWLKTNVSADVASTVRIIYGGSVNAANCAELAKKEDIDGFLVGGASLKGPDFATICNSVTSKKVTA

[2] = target: Triosephosphate isomerase, chloroplastic (Secale cereale) (UniProt P46225); assay: Inhibition of desalted triosephosphate isomerase in Lolium multiflorum (Italian ryegrass) shoot assessed as transformation of GAP to DHAP applied at concentration of 14.4 mg/flat measured per mg protein after 48 hr by coupled enzyme assay (reference value: 9.80 +/-0.43 nmol/sec)
[3] = target: Triosephosphate isomerase, chloroplastic (Secale cereale) (UniProt P46225); assay: Inhibition of desalted triosephosphate isomerase in Lolium multiflorum (Italian ryegrass) shoot assessed as decrease in transformation of GAP to DHAP applied at concentration of 14.4 mg/flat measured after 48 hr by coupled enzyme assay
[4] = target: Triosephosphate isomerase, chloroplastic (Secale cereale) (UniProt P46225); assay: Inhibition of desalted triosephosphate isomerase in Lolium multiflorum (Italian ryegrass) shoot assessed as transformation of GAP to DHAP applied at concentration of 1.80 mg/flat measured per mg protein after 48 hr by coupled enzyme assay (reference value: 9.80 +/-0.43 nmol/sec)
[5] = target: Triosephosphate isomerase, chloroplastic (Secale cereale) (UniProt P46225); assay: Inhibition of desalted triosephosphate isomerase in Lolium multiflorum (Italian rye grass) shoot assessed as transformation of GAP to DHAP applied at concentration of 4.43 mg/flat measured per mg protein after 48 hr by coupled enzyme assay (reference value: 9.80 +/-0.43 nmol/sec)

Row | SMILES | Activity [2] [nmol/s] | inhibition [3] [%] | also measured
1 | CCc1cccc(C)c1N(C(=O)CCl)C(C)COC (configuration not stated) | – | – | Activity [1]: 9.57 nmol/s
2 | CCNc1nc(Cl)nc(NC(C)C)n1 | 7.2 | 26.5 | –
3 | CCOC(=O)C(C)Oc1ccc(Oc2nc3ccc(Cl)cc3o2)cc1 (configuration not stated) | – | – | Activity [4]: 9.3 nmol/s
4 | O=[N+]([O-])c1ccc(Oc2ccc(C(F)(F)F)cc2[N+](=O)[O-])cc1 | 6.28 | 35.9 | –
5 | CCOC(=O)c1nc(C(Cl)(Cl)Cl)n(-c2ccc(Cl)cc2Cl)n1 | – | – | Activity [5]: 10.2 nmol/s
